Key:
NHEKs = experiment: Immunoblot of cadherins and plakoglobin in NHEK lysates; format: cell-based, human; settings: 24 hours in E-medium, vs DMSO
Description: (§1) NHEKs were seeded at a density of 1×10^6 cells per well of 6-well cell culture dishes in M154. Upon reaching confluence, M154 was replaced with E-medium containing vehicle control (DMSO) or inhibitors at the following concentrations: Dabrafenib (1 μM), vemurafenib (10 μM), trametinib (1 μM). After 24 hours, whole-cell lysates were generated by washing cells once in phosphate-buffered saline (PBS) followed by lysis in urea sample buffer [8 M Urea, 60 mM Tris, 1% SDS, 10% glycerol, 5% β-mercaptoethanol, 0.0005% pyronin-Y, pH 6.8] for 10 min. Lysates were homogenized using a microtip probe sonicator (Fisher Scientific).
(§2) Whole-cell lysates were loaded onto NuPAGE 12% Bis-Tris Gels (Thermo-Fisher Cat. #NP0343BOX) and separated by electrophoresis using NuPAGE MES SDS Running Buffer (Thermo-Fisher Cat. #NP0002). Proteins were transferred onto Immobilon-FL membrane (Millipore of Burlington, MA, Cat. #IPFL85R) in transfer buffer (25 mM Tris, 192 mM glycine, 20% (v/v) methanol) at 50 volts (V) for 60 minutes. Membranes were blocked in Intercept tris-buffered saline (TBS) blocking buffer (LI-COR) for 60 minutes at room temperature. Membranes were probed overnight at 4° C. with the primary antibodies diluted in Intercept TBS blocking buffer (LI-COR). […]

HET cells (THEKs) = experiment: Immunoblot of KRT10 and KRT14 in keratinocyte lysates; format: cell-based, human; settings: 1 μM Dab, 1 μM Tram, 10 μM U0126, 10 μM PD184352, 20 μM PD98059 (FIG. 10D)
Description: THEKs were seeded at a density of 1×10^6 cells per well of 6-well cell culture dishes in KSFM. Upon reaching confluence, KSFM was replaced with E-medium containing vehicle control (DMSO) or inhibitors at the following concentrations: Dabrafenib (1 μM), trametinib (1 μM), U0126 (10 μM), PD184352 (10 μM), or PD98059 (20 μM). After 72 hours, whole-cell lysates were generated by washing cells once in PBS followed by lysis in urea sample buffer [8 M Urea, 60 mM Tris, 1% sodium dodecyl sulfate (SDS), 10% glycerol, 5% β-mercaptoethanol, 0.0005% pyronin-Y, pH 6.8] for 10 min. Lysates were homogenized using a microtip probe sonicator (Fisher Scientific).
Whole-cell lysates were loaded onto Any kD Mini-PROTEAN TGX Precast Protein Gels (Bio-Rad) and separated by electrophoresis. Proteins were transferred onto nitrocellulose membranes (Bio-Rad) in ice-cold Towbin transfer buffer (25 mM Tris, 192 mM glycine, 20% (v/v) methanol) at 100 volts (V) for 90 minutes at 4° C. Membranes were blocked in Intercept tris-buffered saline (TBS) blocking buffer (LI-COR) for 45 min at room temperature. Membranes were probed overnight at 4° C. with the primary antibodies diluted at 1:1000 in Intercept TBS blocking buffer (LI-COR). […]

NHEK monolayers [1] = experiment: Monolayer mechanical dissociation assay, SERCA2 inhibition with thapsigargin; format: cell-based, human; settings: with 1 μM TG, 24 hours; 1 μM Tram, 10 μM U0126, 20 μM PD98059, 1 μM dabrafenib
Description: Dispase-based mechanical dissociation assays were carried out as described (Simpson C L, et al. Am J Pathol. 2010; 177(6): p. 2921-37). Keratinocytes were plated at a density of 1×10^6 cells per well of 6-well cell culture dishes. Upon reaching confluence, the calcium concentration of the medium was adjusted to 1.3 mM. Vehicle control (DMSO) or chemical inhibitors were added at the following concentrations: […] After 24 to 72 hours, monolayers were washed with PBS and then incubated with 500 μL dispase (5 U/ml) in Hank's balanced salt solution (Stemcell Technologies of Vancouver, CA, Cat. #07913) for 30 minutes at 37° C. Next, 4.5 ml PBS was added to the wells and all liquid plus released monolayers were transferred into 15 mL conical tubes, which were placed together in a rack and inverted 5-10 times to induce mechanical stress. Monolayer fragments were transferred back into 6-well cell culture plates and imaged with a 12-megapixel digital camera. Fragments were counted in Fiji.

ERK = experiment: Western blotting of pERK in NHEK lysates; format: cell-based, human; settings: Dab 1 μM or Vem 10 μM alone, 24 hours in E-medium, vs DMSO
Description: as §1, §2

[2] = B-RAF inhibitor monotherapy for cancer (Carlos G, et al. 2015); cited from earlier work
NHEK monolayers [3] = experiment: Monolayer mechanical dissociation assay, B-RAF inhibitor model of Grover disease; format: cell-based, human; settings: Dabrafenib 1 μM or vemurafenib 10 μM alone, 24 h
Description: Dispase-based mechanical dissociation assays were carried out as described (70). Keratinocytes were plated at a density of 1×10^6 cells per well of 6-well cell culture dishes. Upon reaching confluence, the cells were switched into E-medium. Vehicle control (DMSO) or chemical inhibitors were added at the following concentrations: Dabrafenib (1 μM), vemurafenib (10 μM) trametinib (1 μM), U0126 (10 μM), or PD98059 (20 μM). After 24 h, monolayers were washed with PBS and then incubated with 500 μL dispase (5 U/ml) in Hank's balanced salt solution (Stemcell Technologies of Vancouver, Canada, Cat. #07913) for 30 minutes at 37° C. Next, 4.5 mL PBS was added to the wells and all liquid plus released monolayers were transferred into 15 mL conical tubes, which were placed together in a rack and inverted 1-10 times to induce mechanical stress. Monolayer fragments were transferred back into 6-well cell culture plates and imaged with a 12-megapixel digital camera. Fragments were counted in Fiji.

## CC(C)(C)c1nc(-c2cccc(NS(=O)(=O)c3c(F)cccc3F)c2F)c(-c2ccnc(N)n2)s1 [dabrafenib]
NHEKs
  protein levels of classical cadherins, desmosomal cadherins (DSG1, DSG2, DSG3) and plakoglobin: did not appreciably alter
HET cells (THEKs)
  KRT10 by immunoblot: failed to rescue KRT10 expression
NHEK monolayers [1]
  integrity of epithelial sheets despite SERCA2 inhibition: did not promote intercellular adhesion, but rather exacerbated the effect of TG
ERK
  pERK by Western blotting: sufficient to increase the active phosphorylated form of ERK (pERK)
[2]
  patients in whom GD was seen: 42.9%
NHEK monolayers [3]
  number of fragments upon mechanical stress: an increase in the number of fragments
NHEK monolayers [3]; listed as Dab
  number of fragments upon mechanical stress: readily fragmented

Reference: patent publication US20240299394A1, “TARGETED TREATMENT FOR SKIN FRAGILITY DISEASES” (University of Washington, priority 2023, published 2024)
